For one data set, the system named is male CD1 mice. Description: Predictive sedation-hypnosis test in mice (motor activity, crossings). In kind it is in vivo. The note with it: single equimolecular intraperitoneal dose, crossings over 30 min after dosing (first 5 min discarded) versus control. Here is the method: • In vivo determination of predictive sedative-hypnotic action.
The in vivo effects of these compounds were assessed by a predictive sedation-hypnosis test in mice (D. J. Sanger et al., Eur. J. Pharmacol., 313, 35-42, 1996; and G. Griebel et al., Psychopharmacology, 146, 205-213, 1999). Groups of 5-8 male CD1 mice, weighing 22-26 g at the time of test, were used. The test compounds were administered in single equimolecular intraperitoneal doses, suspended in 0.25% agar with one drop of Tween in a volume of 10 ml/kg. Control animals received the vehicle alone. Using an Actisystem DAS16 (Panlab, S. L., Spain) the crossings (number of counts) were recorded for each mouse at 5-min intervals during a period of 30 minutes after dosing. The inhibition percentage of crossings of treated animals versus control animals (the first 5 min were discarded) was calculated.

The next data set deals with α2-GABAA receptor (Rattus norvegicus, UniProt P18508+P23576). Description: Ligand-binding assay, radiolabeled flumazenil competition, rat spinal cord membranes. The note with it: for inhibition at 10 µM: read-out: % Inhibition (10^−5 M), affinity for α2-GABAA receptor; for inhibition at 0.1 µM: read-out: % Inhibition (10^−7 M), affinity for α2-GABAA receptor. The protocol:
Determination of the affinity of test compounds for α1- and α2-GABAA receptor.
Male Sprague-Dawley rats weighing 200-250 g at the time of experiment were used. After decapitation of the animal, the cerebellum (tissue that mostly contains α1-GABAA receptor) and spinal cord (tissue that mostly contains α2-GABAA receptor) were removed. The membranes were prepared according to the method by J. Lameh et al. (Prog. Neuro-Psychopharmacol. Biol. Psychiatry, 24, 979-991, 2000). Once the tissues weighed, they were suspended in 50 mM Tris.HCl (pH 7.7), 1:40 (v/v), homogenized and then centrifuged at 20000 g for 10 min at 7° C. The resulting pellet was resuspended under the same conditions and centrifuged again. The pellet was finally resuspended on a minimum volume and kept at −80° C. overnight. On the next day, the process was repeated until the final pellet was resuspended at a ratio of 1:10 (v/v).
Affinity was determined by competitive tests using radiolabeled flumazenil as ligand. The tests were performed according to the methods described by S. Arbilla et al. (Eur. J. Pharmacol., 130, 257-263, 1986); and Y. Wu et al. (Eur. J. Pharmacol., 278, 125-132, 1995). The membranes containing the study receptors, flumazenil (radiolabeling at a final concentration of 1 nM) and ascending concentrations of test compounds (in a total volume of 500 μl in […] [ph 7.4] Tris.HCl buffer) were incubated. Simultaneously, the membranes were only incubated with the radiolabeled flumazenil (total binding, 100%) and in the presence of an elevated concentration of unradiolabeled flumazenil (non-specific binding, % estimation of radiolabeled ligand). The reactions started on adding the radiolabeled ligand followed by incubation for 60 minutes at 0° C. At the end of the incubation period, the tubes were filtered using a Brandel Mod. M-48R harvester and then washed three times with cold test buffer. The harvester was fitted with a GF/B filter that retained the membranes containing the receptors and the radiolabeled ligand which had been bound to the receptors. Then the filters were removed and left till dry. Once dried, the filters were cut, placed in vials with scintillation liquid and left under stirring overnight. The next day the filters were counted using a Packard Mod. Tricarb scintillation counter.
X: amount of bound ligand for every concentration of compound.
T: total binding, maximum amount bound to the radiolabeled ligand.
N: non-specific binding, amount of radiolabeled ligand bound in a non-specific way irrespective of the receptor used.
Every concentrations of compound were tested in duplicate and their mean values were used to determine the experimental values of % specific binding versus the concentration of compound. […] Inhibition constants (Ki) were calculated from the IC50 values according to Cheng-Prusoff's formula (Y. Cheng y W. H. Prusoff, Biochem. Pharmacol., 22(23), 3099-3108, 1973).

What is called melting point is the temperature of the solid-liquid transition. With `CN(c1cccc(-c2ccnc3c(C#N)cnn23)c1)S(C)(=O)=O` [Example 2, N-[3-(3-cyano-pyrazolo[1,5-a]pyrimidin-7-yl)-phenyl]-N-methyl-methanesulfonamide], the melting point lay within 193 to 195 °C. For the same molecule, the “% Motor Activity Inhibition” value in the data set on male CD1 mice is recorded as 71.39%.
The molecule `CN(c1cccc(-c2ccnc3c(C(=O)c4cccs4)cnn23)c1)S(C)(=O)=O` [Example 3, N-methyl-N-{3-[3-(thiophene-2-carbonyl)-pyrazolo[1,5-a]pyrimidin-7-yl]-phenyl}-methanesulfonamide] returned a melting point of 169 to 170 °C. In the data set with male CD1 mice, the “% Motor Activity Inhibition” value is recorded as 93.58%.
One may read the inhibition as the relative decrease from the control value, in per cent. `CN(c1cccc(-c2ccnc3c(C(=O)c4cccs4)cnn23)c1)S(=O)(=O)c1cccs1` [Example 87, N-methyl-N-{3-[3-(thiophene-2-carbonyl)-pyrazolo[1,5-a]pyrimidin-7-yl]-phenyl}-2-thiophene-sulfonamide]: on α2-GABAA receptor, the inhibition at 10 µM is 97.6% and the inhibition at 0.1 µM was determined as 65.1%. For the same molecule, in the data set on male CD1 mice, the “% Motor Activity Inhibition” value is on record as 74.88%.
`Cc1nc(C)c(S(=O)(=O)N(C)c2cccc(-c3ccnc4c(C(=O)c5cccs5)cnn34)c2)s1` [Example 91]: on α2-GABAA receptor, the inhibition at 10 µM was 84.1% and the inhibition at 0.1 µM stood at 4.8%. Besides, in the data set with male CD1 mice, the “% Motor Activity Inhibition” value was 72.85%.
For the molecule `CN(c1cccc(-c2ccnc3c(C(=O)c4cccs4)cnn23)c1)S(=O)(=O)C1CC1` [Example 92, N-methyl-N-{3-[3-(thiophene-2-carbonyl)-pyrazolo[1,5-a]pyrimidin-7-yl]-phenyl}-cyclopropyl-sulfonamide], on α2-GABAA receptor, the inhibition at 10 µM worked out at 95.7% and the inhibition at 0.1 µM is 36.5%. The “% Motor Activity Inhibition” value with male CD1 mice is 74.36%.
On to `C=CS(=O)(=O)N(C)c1cccc(-c2ccnc3c(C(=O)c4cccs4)cnn23)c1` [Example 94, N-methyl-N-{3-[3-(thiophene-2-carbonyl)-pyrazolo[1,5-a]pyrimidin-7-yl]-phenyl}-vinylsulfonamide], for which, on α2-GABAA receptor, the inhibition at 10 µM worked out at 99.5% and the inhibition at 0.1 µM was 41.2%. For the same molecule, the “% Motor Activity Inhibition” value in the data set on male CD1 mice is 88.69%.

The record behind these values is patent US7947688B2, “N-[3-(3-substituted-pyrazolo[1,5-a]pyrimidin-7-yl)phenyl]-sulfonamides, and compositions, and methods related thereto” (Ferrer Internacional, S.A., priority 2003, dated 2011).
